We go through three compounds from US20080318847A1, “Use of Antagonist of Oxytocin and/or Vasopressin in Assisted Reproduction” (Ferring International Center SA, priority 2005, published 2008).

In data set [1] the test system is uterine receptivity at the embryo transfer. Description: Clinical application of atosiban at embryo transfer (IVF-ET): outcome and tolerability. It counts as in vivo, human. An excerpt:
Clinical application of medicament containing atosiban—an antagonist of oxytocin and vasopressin for increasing the uterine receptivity at the embryo transfer in the course of assisted reproduction procedure of IVF-ET (in vitro fertilization-embryo transfer).
In the 8th cycle of the treatment, a decision on application of a medicament containing atosiban (antagonist of oxytocin and vasopressin) was drawn, aiming to improve the uterine receptivity. The medicament was given in intravenous infusion, which started 60 minutes before the transfer and was continued throughout 2 hours after the transfer. 10 minutes before the start of administration (70 minutes before the transfer) transvaginal sonography with 5-minute digital registration of uterine contractions was performed. […] Immediately after, a continuous infusion of 18 mg/hour of atosiban was connected using the infusion pump and was continued throughout the next 60 minutes. 45 minutes after the initiation of the infusion, transvaginal sonography with digital image registration was repeated. Between 55th and 60th minute of infusion, a sonography-guided transfer of 2 embryos was performed. After the transfer, the dosage of atosiban was changed to 6 mg/hour. Infusion was finished 2 hours after the transfer, total dose administered was 37.5 mg.
The mode of application of atosiban described above provided the maximal effect at the time of embryo transfer (it was proven that stable concentrations of atosiban are reached about an hour after the initiation of the infusion). Patient stayed in horizontal position until an hour after termination of the infusion and limited their activities on that day. At the control visit done 2 weeks after the embryo transfer, a pregnancy test was done with positive result.

The conditions of data set [2]: after the initiation of the intravenous infusion; cited from earlier work.
The conditions of data set [3]: clinical use in preterm labor; cited from earlier work.
Data set [4] has as its system uterine contractile activity. Description: Transvaginal sonography of uterine contractile activity before and during atosiban infusion at embryo transfer (IVF-ET patient). It counts as in vivo, human. The method, then: FIG. 1 presents a graph on uterine contractile activity assessed by transvaginal sonography in patient which case is described in example 1. Uterine contractions on graph B and C are marked with light color for better visualization. In the method of digital image analysis, due to the requirement of a high picture quality, a period of 4 minutes out of total 5 minutes recorded was selected for analysis. • A) Schematic presentation of a principle of non invasive assessment of uterine contractility (done similarly to Fanchin et al. [Hum. Reprod. 1998; 13(7):1968-74]) Description: U—uterus, En—endometrium (the inner layer of the uterus)—during the uterine contractions, changes in texture and contour of endometrium are observed, My—myometrium (the middle layer of uterus, built of smooth muscle tissue), T—testing segment, where movements of contour of endometrium representing the uterine contractile activity are assessed • B) Graph presenting uterine contractile activity before the application of oxytocin antagonist atosiban. Contractile hyperactivity is seen. Legend: ↑—uterine contraction, 1 min—segment representing 1 min of digital recording, T—testing segment, where movements of contour of endometrium reflecting the uterine contractile activity are assessed; C) Graph presenting uterine contractile activity in the time of maximal effect of oxytocin antagonist atosiban. […] Legend: ↑—uterine contraction, 1 min—segment representing 1 min of digital recording, T—testing segment, where movements of contour of endometrium reflecting the uterine contractile activity are assessed
In the 8th cycle of the treatment, a decision on application of a medicament containing atosiban (antagonist of oxytocin and vasopressin) was drawn, aiming to improve the uterine receptivity. The medicament was given in intravenous infusion, which started 60 minutes before the transfer and was continued throughout 2 hours after the transfer. […]

Data set [5] concerns human sperm. Description: Human Sperm Motility Bioassay (embryotoxicity). It counts as cell-based. The method, then: In order to verify the embryotoxicity of atosiban a study on influence of atosiban on parameters of human sperm motility was performed (Human Sperm Motility Bioassay). The technique used in the study is a standard in the quality control and evaluation of embryotoxicity in IVF laboratories.
The study was performed on samples of fresh human sperm taken from 15 healthy donors with perfect seminologic parameters. After selecting the alive and motile population (swim-up ascending migration method), sperm samples were transferred to the sterile Eppendorf tubes containing Human Sperm Preparation Medium alone or with atosiban in concentrations of 300 nM, 1000 nM, 3000 nM, last concentrations being 10-fold to maximal concentrations achieved in humans in the course of treatment of preterm labor. Sperm motility assessment was performed with computer assisted sperm analyzer Hobson Sperm Tracker in the 1st, 8th and 24th hour of exposition to atosiban.
Following parameters were analyzed:
a) percentage of actively motile sperm cells (Active %); b) percentage of motile sperm cells (Motility %); c) percentage of hyperactively motile sperm cells (Hyper %), d) VSL—straight line velocity, e) VCL—total velocity, f) ALH—amplitude of lateral head displacements. Results are presented at FIG. 2 and FIG. 3. In the statistic analysis, analysis of variance (ANOVA) was applied.

Data set [6] has as its target vasopressin V1a receptors (Homo sapiens, UniProt P37288). The settings on record: V1a versus oxytocin receptors; cited from earlier work.
Data set [7] deals with uterine contractile activity. The settings on record: non pregnant humans, vasopressin administrations VAS-1 to VAS-3; Bossmar et al.; cited from earlier work.
The subject of data set [8] is human pregnant myometrium. The settings on record: cited from earlier work.
The conditions of data set [9]: in vivo; cited from earlier work.
Where [10] appears, read: atosiban 300 nM, 1000 nM, 3000 nM, 1st, 8th and 24th hour, ANOVA.

“Also recorded” adds a separate entry of the source. Bridge positions count the residues as written; N and C are the ends. Square brackets hold non-standard residues; d marks the D form. Peptide text beside a SMILES is read from it. Orn = NCCC[C@H](N)C(=O)O; Mpa = O=C(O)CCS

vasopressin V1a receptors, sequence (P37288 whole entry): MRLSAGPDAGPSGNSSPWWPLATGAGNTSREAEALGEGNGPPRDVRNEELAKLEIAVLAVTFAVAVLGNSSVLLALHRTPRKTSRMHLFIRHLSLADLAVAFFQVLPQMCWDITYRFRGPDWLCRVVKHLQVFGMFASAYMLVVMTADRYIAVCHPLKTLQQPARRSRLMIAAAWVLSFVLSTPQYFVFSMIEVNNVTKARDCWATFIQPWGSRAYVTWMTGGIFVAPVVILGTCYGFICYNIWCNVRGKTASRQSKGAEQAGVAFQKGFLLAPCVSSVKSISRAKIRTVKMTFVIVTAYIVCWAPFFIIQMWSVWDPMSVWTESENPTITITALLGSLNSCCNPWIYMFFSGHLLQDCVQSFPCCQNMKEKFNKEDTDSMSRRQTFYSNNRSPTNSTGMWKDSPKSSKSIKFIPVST

On to `CCOc1ccc(C[C@H]2NC(=O)CCSSC[C@@H](C(=O)N3CCC[C@H]3C(=O)N[C@@H](CCCN)C(=O)NCC(N)=O)NC(=O)[C@H](CC(N)=O)NC(=O)[C@H]([C@@H](C)O)NC(=O)[C@H]([C@@H](C)CC)NC2=O)cc1` [atosiban] ([Mpa][dY](Et)ITNCP[Orn]G-NH2; disulfide 1-6), for which the pregnancy test result in data set [1] (2 weeks after the embryo transfer, atosiban 6.75 mg bolus, 18 mg/hour then 6 mg/hour i.v.) was “positive”. In addition, in data set [1] (4 weeks after the transfer), the transvaginal sonography finding result is “intrauterine, normal twin pregnancy”. In [1] (bolus dose of 6.75 mg intravenously, 60 minutes before the transfer), the adverse reactions entry is “no adverse reactions”. Besides, the “time until stable concentrations are reached” value in data set [2] is listed as “about an hour”. For the same compound, the side effects entry in [3] was “minimal side effects”. The “uterine contractions, method II (digital analysis of displacements of endometrial contour)” value in [4] (after the administration of atosiban i.v. (stable blood levels), 11 contractions/4 min before administration) was found to be 7 contractions/4 min. In addition, the “uterine contractions, method I (inspection and manual registration of contractions on an accelerated film sequence)” value in data set [4] (after the administration of atosiban i.v. (stable blood levels, 45 minutes after initiation of infusion), 15 contractions/5 min before administration) amounted to 8 contractions/5 min. Further, the “uterine contractile activity (change versus before atosiban)” value in data set [4] (time of maximal effect / stable blood levels of atosiban) was “notably decreased; also recorded: significant reduction”. Also, in [5] (setting [10]), the “percentages of actively motile, motile and hyperactively motile sperm (Active %, Motility %, Hyper %) versus control” value was “No significant differences”; the “sperm movement parameters (VCL, VSL, ALH) versus control” value was “no significant differences”. Also, the “parameters of human sperm motility (Active %, Motility %, Hyper %, VSL, VCL, ALH) versus control samples” value in data set [5] (atosiban 300 nM, 1000 nM, 3000 nM, in vitro, ANOVA) is reported as “does not inhibit; also recorded: No significant differences”. Also, in data set [5] (atosiban up to 3000 nM), the “embryotoxicity (concluded from sperm motility bioassay)” value was “lacks embryotoxic potential; also recorded: lack of embryotoxicity”.

Consider `COc1ccc(S(=O)(=O)N2c3ccc(Cl)cc3[C@](O)(c3ccccc3Cl)[C@@H]2C(=O)N2CCC[C@H]2C(N)=O)cc1OC` [relcovaptan], for which the receptor affinity profile entry in data set [6] is “greater affinity towards vasopressin V1a receptors as compared to oxytocin receptors”. The “uterine contractility (area under curve of intrauterine pressure) relative to placebo” value in data set [7] is reported as “decreasing the uterine contractility”.

As to barusiban, the “inhibition of contractile activity” value in data set [8] (in the range of oxytocin concentrations that occur in humans) was “total inhibition”. The “potency as inhibitor of uterine contractions compared to atosiban” value in data set [8] (in vitro) is recorded as “more potent”. Also, the “myometrium contractile activity after administration” value in [8] (oxytocin stimulated, in vitro, Pierzynski et al.) is “significantly reduced”. In [9], the “estimated half time of a single dose” value was 7 h.
